Data on 5 compounds can be found in patent US9499550B2 (BRISTOL-MYERS SQUIBB COMPANY, priority 2012, dated 2016).

The structures appear in SMILES notation. Bounds are passed on as bounds.

Assay [1] deals with HCV genotype 1b (Con1) replicon in HUH-7 cells. As to the kind of experiment: HCV replicon luciferase reporter assay, genotype 1b. The assay is classed as cell-based. The conditions noted are these: Hepatitis C virus, Huh-7, 72 h, HCV genotype 1b replicon luciferase assay, 3 days incubation, range class, read-out: LE_1b (EC50, range). The method, boiled down:
(§1)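 Replicon inhibition for both genotypes was measured as Renilla luciferase signal (EnduRen, 7.5 μM final, 2 h) after 3-day, 37° C exposure of replicon-bearing HUH-7 cells in 4% FCS DMEM, 0.5% DMSO. The 1b construct carries S1179I; the 1a H77 construct carries P1496L and S2204I. Twenty-point, 3-fold dilutions were fitted four-parametrically for EC50, and CC50 was taken from multiplexed Cell Titer-Blue.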

The subject of assay [2] is HCV genotype 1a (H77 strain) replicon in HUH-7 cells. As to the kind of experiment: HCV replicon luciferase reporter assay, genotype 1a. The assay is classed as cell-based. To be noted: Hepatitis C virus, Huh-7, 72 h, HCV genotype 1a replicon luciferase assay, 3 days incubation, range class, read-out: LE_1a (EC50, range). The method, boiled down:
as §1
In general terms: In antiviral work, replicon cells carry a viral genome segment that copies itself.

Take `COCCOc1cc2c(Cl)cccc2c(O[C@@H]2C[C@H]3C(=O)N[C@]4(C(=O)NS(=O)(=O)C5(C)CC5)C[C@H]4/C=C\CC[C@H](C)C[C@@H](C)[C@H](NC(=O)OC(C)(C)C(F)(F)F)C(=O)N3C2)n1` [Compound 1113, 1,1,1-trifluoro-2-methylpropan-2-yl((2R,6S,7R,9S,13aS,14aR,16aS,Z)-2-((5-chloro-3-(2-methoxyethoxyl)isoquinolin-1-yl)oxy)-7,9-dimethyl-14a-(((1-methylcyclopropyl)sulfonyl)carbamoyl)-5,16-dioxo-1,2,3,5,6,7,8,9,10,11,13a,14,14a,15,16,16a-hexadecahydrocyclopropa[e]pyrrolo[1,2-a][1,4]diazacyclopentadecin-6-yl)carbamate]: the EC50 in assay [1] and in assay [2] was below 5.46 nM in each case.

With `COCCOc1cc2c(Cl)cccc2c(O[C@@H]2C[C@H]3C(=O)N[C@]4(C(=O)NS(=O)(=O)C5(C)CC5)C[C@H]4/C=C\CC[C@H](C)C[C@@H](C)[C@H](NC(=O)OC(C)(C)C(C)(F)F)C(=O)N3C2)n1` [Compound 1115, 3,3-difluoro-2-methylbutan-2-yl((2R,6S,7R,9S,13aS,14aR,16aS,Z)-2-((5-chloro-3-(2-methoxyethoxyl)isoquinolin-1-yl)oxy)-7,9-dimethyl-14a-(((1-methylcyclopropyl)sulfonyl)carbamoyl)-5,16-dioxo-1,2,3,5,6,7,8,9,10,11,13a,14,14a,15,16,16a-hexadecahydrocyclopropa[e]pyrrolo[1,2-a][1,4]diazacyclopentadecin-6-yl)carbamate], the EC50 in assay [1] and in assay [2] was below 5.46 nM in each case.

On to `COCCOc1cc2c(Cl)cccc2c(O[C@@H]2C[C@H]3C(=O)N[C@]4(C(=O)NS(=O)(=O)C5(C)CC5)C[C@H]4/C=C\CC[C@@H](C)C[C@@H](C)[C@H](NC(=O)OC(C)(C)C(C)(F)F)C(=O)N3C2)n1` [Compound 1116, 3,3-difluoro-2-methylbutan-2-yl((2R,6S,7R,9R,13aS,14aR,16aS,Z)-2-((5-chloro-3-(2-methoxyethoxyl)isoquinolin-1-yl)oxy)-7,9-dimethyl-14a-(((1-methylcyclopropyl)sulfonyl)carbamoyl)-5,16-dioxo-1,2,3,5,6,7,8,9,10,11,13a,14,14a,15,16,16a-hexadecahydrocyclopropa[e]pyrrolo[1,2-a][1,4]diazacyclopentadecin-6-yl)carbamate], for which the EC50 in assay [1] and in assay [2] was below 5.46 nM each time.

Turning to `COCCOc1cc2c(Cl)cccc2c(O[C@@H]2C[C@H]3C(=O)N[C@]4(C(=O)NS(=O)(=O)C5(C)CC5)C[C@H]4/C=C\CC[C@H](C)C[C@@H](C)[C@H](NC(=O)OC(C)(C)C)C(=O)N3C2)n1` [Compound 1117, tert-butyl ((2R,6S,7R,9S,13aS,14aR,16aS,Z)-2-((5-chloro-3-(2-methoxyethoxyl)isoquinolin-1-yl)oxy)-7,9-dimethyl-14a-(((1-methylcyclopropyl)sulfonyl)carbamoyl)-5,16-dioxo-1,2,3,5,6,7,8,9,10,11,13a,14,14a,15,16,16a-hexadecahydrocyclopropa[e]pyrrolo[1,2-a][1,4]diazacyclopentadecin-6-yl)carbamate], the EC50 in assay [1] and in assay [2] was below 5.46 nM in each case.

`COCCOc1cc2c(Cl)cccc2c(O[C@@H]2C[C@H]3C(=O)N[C@]4(C(=O)NS(=O)(=O)C5(C)CC5)C[C@H]4/C=C\CC[C@@H](C)C[C@@H](C)[C@H](NC(=O)OC(C)(C)C)C(=O)N3C2)n1` [Compound 1118, tert-butyl ((2R,6S,7R,9R,13aS,14aR,16aS,Z)-2-((5-chloro-3-(2-methoxyethoxyl)isoquinolin-1-yl)oxy)-7,9-dimethyl-14a-(((1-methylcyclopropyl)sulfonyl)carbamoyl)-5,16-dioxo-1,2,3,5,6,7,8,9,10,11,13a,14,14a,15,16,16a-hexadecahydrocyclopropa[e]pyrrolo[1,2-a][1,4]diazacyclopentadecin-6-yl)carbamate]: the EC50 in assay [1] and in assay [2] was below 5.46 nM each time.

Broadly, the EC50 is the concentration at which the effect is half-maximal.
